Data published in patent US20240058450A1, “BCL-XL Inhibitory Compounds Having Low Cell Permeability and Antibody Drug Conjugates Including the Same” (AbbVie Inc., priority 2014, published 2024).
Read-outs that look alike come from different tables or passages of the source.

Columns and labels:
[1] = target: Bcl-xL (Homo sapiens, UniProt Q07817); assay: Time Resolved-Fluorescence Resonance Energy Transfer (TR-FRET) binding assay, competition with probe F-Bak
Experimental: Tb-anti-GST antibody was purchased from Invitrogen (Catalog No. PV4216).
For the assay, test compounds were serially diluted in DMSO starting at 50 μM (2× starting concentration; 10% DMSO) and 10 μL transferred into a 384-well plate. 10 μL of a protein/probe/antibody mix was then added to each well at final concentrations listed below:
The samples were then mixed on a shaker for 1 minute and incubated for an additional 2 hours at room temperature. For each assay plate, a probe/antibody and protein/antibody/probe mixture were included as a negative and a positive control, respectively. Fluorescence was measured on the Envision (Perkin Elmer) using a 340/35 nm excitation filter and 520/525 (F-Bak) and 495/510 nm (Tb-labeled anti-his antibody) emission filters. Dissociation constants (Ki) were determined using Wang's equation (Wang, 1995, FEBS Lett. 360:111-114). The TR-FRET assay can be performed in the presence of varying concentrations of human serum (HS) or fetal bovine serum (FBS). Compounds were tested both without HS and in the presence of 1% HS.

[2] = tested on: Molt-4 human acute lymphoblastic leukemia cells; assay: Molt-4 cell viability assay (CellTiter-Glo, 48 hours, 10% HS); assay type: cell-based; conditions: non-permeabilized cells
Experimental: The ability of Bcl-xL inhibitors that are able to traverse cell membranes to inhibit Bcl-xL can be determined in cell-based killing assays using a variety of cell lines and mouse tumor models. For example, their activity on cell viability can be assessed on a panel of cultured tumorigenic and non-tumorigenic cell lines, as well as primary mouse or human cell populations.
In one exemplary set of conditions, Molt-4 (ATCC, Manassas, VA) human acute lymphoblastic leukemia cells were plated 12,500 cells per well in 384-well tissue culture plates (Corning, Corning, NY) in a total volume of 25 μL tissue culture medium supplemented with 10% human serum (Sigma-Aldrich, St. Louis, MO) and treated with a 3-fold serial dilution of the compounds of interest from 10 μM to 0.0005 μM. Each concentration was tested in duplicate at least 3 separate times. The number of viable cells following 48 hours of compound treatment was determined using the CellTiter-Glo®, Luminescent Cell Viability Assay according to the manufacturer's recommendations (Promega Corp., Madison, WI). Compounds were tested in the presence of 10% HS.

[3] = in the presence of 1% HS, read-out: Bcl-xL Binding Ki (nM, 1% HS)
[4] = without HS, read-out: Bcl-xL Binding Ki

Bcl-xL, sequence (Q07817 whole entry): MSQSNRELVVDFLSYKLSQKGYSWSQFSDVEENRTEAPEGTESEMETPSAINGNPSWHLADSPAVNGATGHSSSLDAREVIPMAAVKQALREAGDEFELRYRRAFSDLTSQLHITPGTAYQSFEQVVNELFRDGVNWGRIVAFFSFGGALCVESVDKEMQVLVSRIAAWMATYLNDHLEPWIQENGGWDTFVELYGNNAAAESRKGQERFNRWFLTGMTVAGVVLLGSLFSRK

Ki [1, 3] [nM] | Ki [1, 4] [nM] | EC50 ([2]; Homo sapiens, MOLT-4, 48 h) [nM] | SMILES | EC50 [2] [nM]
0.09 | < 0.001 | 26 | Cc1c(-c2ccc(N3CCc4cccc(C(=O)Nc5nc6ccccc6s5)c4C3)nc2C(=O)O)cnn1CC12CC3(C)CC(C)(C1)CC(OCCNCCOCCOCC(=O)O)(C3)C2 [Example 1.1, 6-[8-(1,3-benzothiazol-2-ylcarbamoyl)-3,4-dihydroisoquinolin-2 (1H)-yl]-3-[1-({3-[2-({2-[2-(carboxymethoxy)ethoxy]ethyl}amino)ethoxy]-5,7-dimethyltricyclo[3.3.1.1^3,7]dec-1-yl]methyl)-5-methyl-1H-pyrazol-4-yl]pyridine-2-carboxylic acid] | –
0.18 | 0.0011 | 23 | Cc1c(-c2ccc(N3CCc4cccc(C(=O)Nc5nc6ccccc6s5)c4C3)nc2C(=O)O)cnn1CC12CC3(C)CC(C)(C1)CC(OCCNCCS(=O)(=O)N[C@H]1C(O)O[C@H](CO)[C@@H](O)[C@@H]1O)(C3)C2 (stereo partly drawn) [Example 1.3, 2-{[(2-{[2-({3-[(4-{6-[8-(1,3-benzothiazol-2-ylcarbamoyl)-3,4-dihydroisoquinolin-2 (1H)-yl]-2-carboxypyridin-3-yl}-5-methyl-1H-pyrazol-1-yl)methyl]-5,7-dimethyltricyclo[3.3.1.1^3,7]dec-1-yl)oxy)ethyl]amino)ethyl)sulfonyl]amino}-2-deoxy-D-glucopyranose] | –
0.24 | – | 12 | Cc1c(-c2ccc(N3CCc4cccc(C(=O)Nc5nc6ccccc6s5)c4C3)nc2C(=O)O)cnn1CC12CC3(C)CC(C)(C1)CC(OCCNCC(O)CO)(C3)C2 (centres unmarked) [Example 1.7, 6-[8-(1,3-benzothiazol-2-ylcarbamoyl)-3,4-dihydroisoquinolin-2 (1H)-yl]-3-{1-[(3-{2-[(2,3-dihydroxypropyl)amino]ethoxy}-5,7-dimethyltricyclo[3.3.1.1^3,7]dec-1-yl)methyl]-5-methyl-1H-pyrazol-4-yl}pyridine-2-carboxylic acid] | –
0.19 | 0.0019 | 108 | Cc1c(-c2ccc(N3CCc4cccc(C(=O)Nc5nc6ccccc6s5)c4C3)nc2C(=O)O)cnn1CC12CC3(C)CC(C)(C1)CC(OCCNCc1ccc(S(=O)(=O)N[C@@H]4[C@@H](O)[C@H](O)[C@@H](CO)O[C@H]4O)cc1)(C3)C2 [Example 1.8, 2-({[4-({[2-({3-[(4-{6-[8-(1,3-benzothiazol-2-ylcarbamoyl)-3,4-dihydroisoquinolin-2 (1H)-yl]-2-carboxypyridin-3-yl}-5-methyl-1H-pyrazol-1-yl)methyl]-5,7-dimethyltricyclo[3.3.1.1^3,7]dec-1-yl}oxy)ethyl]amino}methyl)phenyl]sulfonyl}amino)-2-deoxy-beta-D-glucopyranose] | –
0.047 | < 0.001 | – | Cc1c(-c2ccc(N3CCc4cccc(C(=O)Nc5nc6ccccc6s5)c4C3)nc2C(=O)O)cnn1CC12CC3(C)CC(C)(C1)CC(OCCNCCc1cn([C@@H]4O[C@H](C(=O)O)[C@@H](O)[C@H](O)[C@H]4O)nn1)(C3)C2 [Example 1.9, 8-(1,3-benzothiazol-2-ylcarbamoyl)-2-{6-carboxy-5-[1-({3-[2-({2-[1-(beta-D-glucopyranuronosyl)-1H-1,2,3-triazol-4-yl]ethyl}amino)ethoxy]-5,7-dimethyltricyclo[3.3.1.1^3,7]dec-1-yl}methyl)-5-methyl-1H-pyrazol-4-yl]pyridin-2-yl}-1,2,3,4-tetrahydroisoquinoline] | –
0.17 | < 0.001 | 218 | Cc1c(-c2ccc(N3CCc4cccc(C(=O)Nc5nc6ccccc6s5)c4C3)nc2C(=O)O)cnn1CC12CC3(C)CC(C)(C1)CC(OCCOCCNCCCP(=O)(O)O)(C3)C2 [Example 1.16, 6-[8-(1,3-benzothiazol-2-ylcarbamoyl)-3,4-dihydroisoquinolin-2 (1H)-yl]-3-(1-{[3,5-dimethyl-7-(2-{2-[(3-phosphonopropyl)amino]ethoxy}ethoxy)tricyclo[3.3.1.1^3,7]dec-1-yl]methyl}-5-methyl-1H-pyrazol-4-yl}pyridine-2-carboxylic acid] | –
0.3 | 0.022 | 576 | Cc1c(-c2ccc(N3CCc4cccc(C(=O)Nc5nc6ccccc6s5)c4C3)nc2C(=O)O)cnn1CC12CC3(C)CC(C)(C1)CC(OCCN(C)C(=O)[C@@H](N)CC(=O)O)(C3)C2 [Example 1.17, 3-{1-[(3-{2-[L-alpha-aspartyl(methyl)amino]ethoxy}-5,7-dimethyltricyclo[3.3.1.1^3,7]dec-1-yl)methyl]-5-methyl-1H-pyrazol-4-yl}-6-[8-(1,3-benzothiazol-2-ylcarbamoyl)-3,4-dihydroisoquinolin-2 (1H)-yl]pyridine-2-carboxylic acid] | –
0.22 | 0.004 | 420 | Cc1c(-c2ccc(-c3ccc4c(c3)N(C(=O)Nc3nc5ccccc5s3)CCC4)nc2C(=O)O)cnn1CC12CC3(C)CC(C)(C1)CC(OCCN(C)C(=O)[C@@H](N)CS(=O)(=O)O)(C3)C2 [Example 1.21, 6-[1-(1,3-benzothiazol-2-ylcarbamoyl)-1,2,3,4-tetrahydroquinolin-7-yl]-3-(1-[(3,5-dimethyl-7-(2-[methyl(3-sulfo-L-alanyl)amino]ethoxy}tricyclo[3.3.1.1^3,7]dec-1-yl)methyl]-5-methyl-1H-pyrazol-4-yl)pyridine-2-carboxylic acid] | –
0.099 | < 0.01 | – | Cc1c(-c2ccc(-c3ccc4c(c3)N(C(=O)Nc3nc5ccccc5s3)CCC4)nc2C(=O)O)cnn1CC12CC3(C)CC(C)(C1)CC(OCCN(C)C1CNC1)(C3)C2 [Example 1.65, 3-{1-[(3-{2-[azetidin-3-yl(methyl)amino]ethoxy}-5,7-dimethyltricyclo[3.3.1.1^3,7]dec-1-yl)methyl]-5-methyl-1H-pyrazol-4-yl}-6-[1-(1,3-benzothiazol-2-ylcarbamoyl)-1,2,3,4-tetrahydroquinolin-7-yl]pyridine-2-carboxylic acid] | –
0.51 | < 0.01 | – | CO[C@H]1O[C@@H](Cn2cc(CCCNCCOC34CC5(C)CC(C)(CC(Cn6ncc(-c7ccc(N8CCc9cccc(C(=O)Nc%10nc%11ccccc%11s%10)c9C8)nc7C(=O)O)c6C)(C5)C3)C4)nn2)[C@H](O)[C@@H](O)[C@@H]1O [Example 1.67, methyl 6-[4-(3-{[2-({3-[(4-{6-[8-(1,3-benzothiazol-2-ylcarbamoyl)-3,4-dihydroisoquinolin-2 (1H)-yl]-2-carboxypyridin-3-yl}-5-methyl-1H-pyrazol-1-yl)methyl]-5,7-dimethyltricyclo[3.3.1.1^3,7]dec-1-yl}oxy)ethyl]amino}propyl)-1H-1,2,3-triazol-1-yl]-6-deoxy-beta-L-glucopyranoside] | –
0.97 | < 0.01 | – | Cc1c(-c2ccc(N3CCc4cccc(C(=O)Nc5nc6ccccc6s5)c4C3)nc2C(=O)O)cnn1CC12CC3(C)CC(C)(C1)CC(NC(=O)CNCCS(=O)(=O)O)(C3)C2 [Example 1.89, 6-{8-[(1,3-benzothiazol-2-yl)carbamoyl]-3,4-dihydroisoquinolin-2 (1H)-yl)-3-{1-[(3,5-dimethyl-7-{2-[(2-sulfoethyl)amino]acetamido}tricyclo[3.3.1.1^3,7]decan-1-yl)methyl]-5-methyl-1H-pyrazol-4-yl}pyridine-2-carboxylic acid] | –
4.2 | 0.13 | – | Cc1c(-c2ccc(N3CCc4cccc(C(=O)Nc5nc6ccccc6s5)c4C3)nc2C(=O)O)cnn1CC12CC3(C)CC(C)(C1)CC(SCCNCCS(=O)(=O)O)(C3)C2 [Example 1.90, 6-[8-(1,3-benzothiazol-2-ylcarbamoyl)-3,4-dihydroisoquinolin-2 (1H)-yl]-3-(1-{[3,5-dimethyl-7-((2-[(2-sulfoethyl)amino]ethyl)sulfanyl)tricyclo[3.3.1.1^3,7]dec-1-yl]methyl)-5-methyl-1H-pyrazol-4-yl)pyridine-2-carboxylic acid] | –
2.8 | 0.064 | – | Cc1c(-c2ccc(N3CCc4cccc(C(=O)Nc5nc6ccccc6s5)c4C3)nc2C(=O)O)cnn1CC12CC3(C)CC(C)(CC(CCCNCCS(=O)(=O)O)(C3)C1)C2 [Example 1.91, 6-{8-[(1,3-benzothiazol-2-yl)carbamoyl]-3,4-dihydroisoquinolin-2 (1H)-yl}-3-{1-[(3,5-dimethyl-7-{3-[(2-sulfoethyl)amino]propyl}tricyclo[3.3.1.1^3,7]decan-1-yl)methyl]-5-methyl-1H-pyrazol-4-yl}pyridine-2-carboxylic acid] | –

SMILES | Ki [1, 3] [nM] | Ki [1, 4] [nM] | EC50 ([2]; Homo sapiens, MOLT-4, 48 h) [nM] | EC50 [2] [nM]
Cc1c(-c2ccc(N3CCc4cccc(C(=O)Nc5nc6ccccc6s5)c4C3)nc2C(=O)O)cnn1CC12CC3(C)CC(C)(C1)CC(OCCN(C)C(=O)[C@H](N)CC(=O)O)(C3)C2 [Example 1.27] | 0.18 | < 0.001 | – | 935
